{"source": "paper PMC10776687", "about": "(Nature Communications, 2024)", "assay_type_in_all_cases": "cell-based", "key": {"[1]": {"biological_target": "T1, human serotonin transporter (SERT) (Homo sapiens, UniProt P31645)", "T1 construct": "gene SLC6A4; human WT SERT, N-terminal eYFP fusion, stably expressed in HEK293 cells", "T1 sequence (P31645 whole entry, the tested form may be a part)": "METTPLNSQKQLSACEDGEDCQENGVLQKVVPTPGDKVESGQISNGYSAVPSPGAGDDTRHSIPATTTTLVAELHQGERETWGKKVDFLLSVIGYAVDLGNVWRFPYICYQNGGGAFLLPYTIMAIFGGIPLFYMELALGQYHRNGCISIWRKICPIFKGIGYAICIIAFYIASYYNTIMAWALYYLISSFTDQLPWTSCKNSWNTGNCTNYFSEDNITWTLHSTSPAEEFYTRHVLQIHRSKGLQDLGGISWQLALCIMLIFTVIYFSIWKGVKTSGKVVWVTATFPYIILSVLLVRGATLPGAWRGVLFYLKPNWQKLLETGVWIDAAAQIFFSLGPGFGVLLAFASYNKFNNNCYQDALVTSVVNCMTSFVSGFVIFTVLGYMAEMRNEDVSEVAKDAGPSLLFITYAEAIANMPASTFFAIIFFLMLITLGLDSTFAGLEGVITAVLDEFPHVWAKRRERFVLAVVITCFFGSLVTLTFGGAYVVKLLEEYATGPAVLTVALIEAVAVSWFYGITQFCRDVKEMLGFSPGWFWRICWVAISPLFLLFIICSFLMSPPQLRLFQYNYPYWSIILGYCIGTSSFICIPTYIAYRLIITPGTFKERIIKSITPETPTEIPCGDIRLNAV", "test": "[3H]5HT uptake kinetics (Km/Vmax) in HEK293 cells at the compound's IC50, n = […]"}, "[2]": {"biological_target": "T1, human serotonin transporter (SERT)", "test": "[3H]5HT uptake inhibition in HEK293 cells; whole-cell patch clamp (partial substrate, kon/koff)"}, "[3]": {"biological_target": "T1, human serotonin transporter (SERT)", "test": "[3H]5HT uptake inhibition in HEK293 cells; whole-cell patch clamp (partial substrate, kon/koff); efflux"}, "[4]": {"biological_target": "T1, human serotonin transporter (SERT)", "test": "[3H]5HT uptake inhibition in HEK293 cells; whole-cell patch clamp (almost pure inhibitor)"}}, "data": [{"compound": "COC(=O)[C@H]1[C@@H](OC(=O)c2ccccc2)C[C@@H]2CC[C@H]1N2C", "note": "[COC, cocaine]", "values": [{"measurement": "IC50", "setting": "[1]", "result": 4000, "unit": "nM"}]}, {"compound": "NCCCCc1c[nH]c2ccc(O)cc12", "note": "[B-5HT, butyl (B)-5HT]", "values": [{"measurement": "IC50", "setting": "[2]", "result": 270, "unit": "nM"}]}, {"compound": "NCCCc1c[nH]c2ccc(O)cc12", "note": "[P-5HT, propyl (P)-5HT]", "values": [{"measurement": "IC50", "setting": "[3]", "result": 590, "unit": "nM"}]}, {"compound": "CC[C@H]1C[C@@H]2C[C@H]3c4[nH]c5ccc(OC)cc5c4CCN(C2)[C@@H]13", "note": "[IBO, ibogaine]", "values": [{"measurement": "IC50", "setting": "[1]", "result": 24000, "unit": "nM"}]}, {"compound": "NCc1c[nH]c2ccc(O)cc12", "note": "[M-5HT]", "values": [{"measurement": "IC50", "setting": "[4]", "result": 79300, "unit": "nM"}]}]}
